Drawing on patent US20060047114A1, “Azabicyclic amine histamine-3 receptor antagonists” (Pfizer Inc, priority 2004, published 2006), this text covers Ki for 14 molecules.

The target in this test is T1, rat histamine H3 receptors (Rattus norvegicus, UniProt Q9QYN8).
T1 construct: Frozen rat frontal brain or frozen human post-mortem frontal brain is homogenized; from tissue; host or cells: rat frontal brain membranes
T1 sequence (Q9QYN8 whole entry): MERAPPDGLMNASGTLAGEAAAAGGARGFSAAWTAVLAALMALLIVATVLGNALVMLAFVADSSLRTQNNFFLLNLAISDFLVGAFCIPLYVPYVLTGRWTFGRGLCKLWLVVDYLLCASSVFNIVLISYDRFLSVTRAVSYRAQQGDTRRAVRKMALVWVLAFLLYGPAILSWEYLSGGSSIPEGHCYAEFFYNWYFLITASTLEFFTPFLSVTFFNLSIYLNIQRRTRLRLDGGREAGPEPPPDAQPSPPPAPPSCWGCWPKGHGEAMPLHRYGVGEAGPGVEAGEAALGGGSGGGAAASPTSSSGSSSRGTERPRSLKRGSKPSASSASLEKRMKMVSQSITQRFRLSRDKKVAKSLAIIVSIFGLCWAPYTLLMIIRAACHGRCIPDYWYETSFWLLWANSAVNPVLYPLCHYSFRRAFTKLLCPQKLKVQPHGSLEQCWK
In words: Rat H3 binding (3H-N-methylhistamine displacement, frontal brain membranes). The following applies: radioligand 1 nM 3H-N-methylhistamine, 1-hour incubation, read-out: Rat H3 activity (Kj). The procedure: The in vitro affinity of the compounds in the present invention at the rat or human histamine H3 receptors can be determined according to the following procedure. Frozen rat frontal brain or frozen human post-mortem frontal brain is homogenized in 20 volumes of cold 50 mM Tris HCl containing 2 mM MgCl2 (pH to 7.4 at 4° C.). The homogenate is then centrifuged at 45,000 G for 10 minutes. The supernatant is decanted and the membrane pellet re-suspended by Polytron in cold 50 mM Tris HCl containing 2 mM MgCl2 (pH to 7.4 at 4 degrees C.) and centrifuged again. The final pellet is re-suspended in 50 mM Tris HCl containing 2 mM MgCl2 (pH to 7.4 at 25 degrees C.) at a concentration of 12 mg/mL. Dilutions of compounds are made in 10% DMSO/50 mM Tris buffer (pH 7.4) (at 10× final concentration, so that the final DMSO concentration is 1%). Incubations are initiated by the addition of membranes (200 microliters) to 96 well V-bottom polypropylene plates containing 25 microliters of drug dilutions and 25 microliters of radioligand (1 nM final concentration ^3H-N-methylhistamine). After a 1-hour incubation, assay samples are rapidly filtered through Whatman GF/B filters and rinsed with ice-cold 50 mM Tris buffer (pH 7.4) using a Skatron cell harvester. Radioactivity is quantified using a BetaPlate scintillation counter.
`CC(C)COc1ccc(CN2C[C@@H]3[C@@H](COCCCN4CCCCC4)[C@@H]3C2)cc1` [Example 70, (1R,5S,6R)-3-(4-isobutoxybenzyl)-6-(3-piperidin-1-ylpropoxymethyl)-3-azabicyclo[3.1.0]hexane]: the Ki was determined as 69 nM.

On to `O=C1NCCN1c1ccc(CN2C[C@@H]3[C@@H](COCCCN4CCCCC4)[C@@H]3C2)cc1` [Example 51, 1-{4-[(1R,5S,6R)-6-(3-piperidin-1-ylpropoxymethyl)-3-azabicyclo[3.1.0]hex-3-ylmethyl]-phenyl}-imidazolidin-2-one], for which the Ki was found to be 58 nM.

`c1cncc(-c2ccc(CN3C[C@@H]4[C@@H](COCCCN5CCCCC5)[C@@H]4C3)cc2)c1` [Example 67, (1R,5S,6R)-6-(3-piperidin-1-ylpropoxymethyl)-3-(4-pyridin-3-ylbenzyl)-3-azabicyclo[3.1.0]hexane]: the Ki amounted to 63 nM.

Take `COc1ccc(-c2ccc(CN3C[C@@H]4[C@@H](COCCCN5CCCCC5)[C@@H]4C3)cc2)cc1` [Example 57, (1R,5S,6R)-3-(4′-methoxybiphenyl-4-ylmethyl)-6-(3-piperidin-1-ylpropoxymethyl)-3-azabicyclo[3.1.0]hexane]: the Ki worked out at 30 nM.

As to `CC(=O)Nc1ccc(CN2C[C@@H]3[C@@H](COCCCN4CCCCC4)[C@@H]3C2)cc1` [Example 49, N-{4-[(1R,5S,6R)-6-(3-piperidin-1-ylpropoxymethyl)-3-azabicyclo[3.1.0]hex-3-ylmethyl]-phenyl}-acetamide], the Ki stood at 45 nM.

On to `c1ccc(-c2ccc(CN3C[C@@H]4[C@@H](COCCCN5CCCCC5)[C@@H]4C3)cc2)cc1` [Example 17, (1S,5R,6R)-3-biphenyl-4-ylmethyl-6-(3-piperidin-1-ylpropoxymethyl)-3-azabicyclo[3.1.0]hexane], for which the Ki was 32 nM.

For `c1ccc(CCN2C[C@@H]3[C@@H](COCCCN4CCCCC4)[C@@H]3C2)cc1` [Example 3, (1S,5R,6R)-3-Phenethyl-6-(3-piperidin-1-ylpropoxymethyl)-3-azabicyclo[3.1.0]-hexane], the Ki came to 78 nM.

Consider `c1ccc(CN2C[C@@H]3[C@@H](COCCCN4CCCCC4)[C@@H]3C2)cc1` [Int. 3, (1S,5R,6R)-3-Benzyl-6-(3-piperidin-1-ylpropoxymethyl)-3-azabicyclo[3.1.0]hexane], for which the Ki came out at 86 nM.

For `Fc1ccc(Oc2ccc(CN3C[C@@H]4[C@@H](COCCCN5CCCCC5)[C@@H]4C3)cc2)cc1` [Example 47, (1R,5S,6R)-3-[4-(4-fluorophenoxy)-benzyl]-6-(3-piperidin-1-ylpropoxymethyl)-3-azabicyclo[3.1.0]hexane], the Ki came out at 43 nM.

Consider `c1ccc(Oc2ccc(CN3C[C@@H]4[C@@H](COCCCN5CCCCC5)[C@@H]4C3)cc2)cc1` [Example 30, (1S,5R,6R)-3-(4-phenoxybenzyl)-6-(3-piperidin-1-ylpropoxymethyl)-3-azabicyclo[3.1.0]hexane], for which the Ki was determined as 51 nM.

In the case of `c1ccc(COc2cccc(CN3C[C@@H]4[C@@H](COCCCN5CCCCC5)[C@@H]4C3)c2)cc1` [Example 15, (1S,5R,6R)-3-(3-benzyloxybenzyl)-6-(3-piperidin-1-ylpropoxymethyl)-3-azabicyclo[3.1.0]hexane], the Ki stood at 41 nM.

For the molecule `c1ccc(Oc2cccc(CN3C[C@@H]4[C@@H](COCCCN5CCCCC5)[C@@H]4C3)c2)cc1` [Example 14, (1S,5R,6R)-3-(3-phenoxybenzyl)-6-(3-piperidin-1-ylpropoxymethyl)-3-azabicyclo[3.1.0]hexane], the Ki is 51 nM.

Take `CC(=O)c1ccc(CN2C[C@@H]3[C@@H](COCCCN4CCCCC4)[C@@H]3C2)cc1` [Example 2, (1S,5R,6R)-1-{4-[6-(3-Piperidin-1-ylpropoxymethyl)-3-azabicyclo[3.1.0]hex-3-ylmethyl]-phenyl}-ethanone]: the Ki amounted to 116 nM.

Consider `FC(F)C(F)(F)Oc1ccc(CN2C[C@@H]3[C@@H](COCCCN4CCCCC4)[C@@H]3C2)cc1` [Example 69, (1R,5S,6R)-6-(3-piperidin-1-ylpropoxymethyl)-3-[4-(1,1,2,2-tetrafluoroethoxy)-benzyl]-3-azabicyclo[3.1.0]hexane], for which the Ki was found to be 53 nM.
